This is an account of results in ChEMBL document CHEMBL1208715, “Cyclic amide bioisosterism: strategic application to the design and synthesis of HCV NS5B polymerase inhibitors” (Bioorg Med Chem Lett, 2010).

Data set [1] is described as follows: Inhibition of HCV GT1b NS5B polymerase. Further details: species or system Hepacivirus hominis.
For a further data set, the system named is Hepatitis C virus. Description: Antiviral activity against […] Con1 GT1b infected in HuH7 cells by replicon assay. The data set is classed as functional, Hepacivirus hominis. The settings on record: Huh-7. A general note: Replicon systems follow genome replication, usually without infectious particles.
The nature of data set [2]: Cytotoxicity against human HuH7 cells by WST-1 assay. The data set is classed as cell-based, Huh-7.
A short description of data set [3]: Inhibition of wild type HCV GT1b NS5B polymerase. Further details: species or system Hepacivirus hominis.
Data set [4] deals with RNA-directed RNA polymerase (Hepacivirus hominis, UniProt O39930, L419M). The experiment in a line: Inhibition of HCV NS5B polymerase L419M mutant.
Sequence of RNA-directed RNA polymerase (Hepacivirus hominis, UniProt O39930, L419M) (O39930 entry or part of it L419M): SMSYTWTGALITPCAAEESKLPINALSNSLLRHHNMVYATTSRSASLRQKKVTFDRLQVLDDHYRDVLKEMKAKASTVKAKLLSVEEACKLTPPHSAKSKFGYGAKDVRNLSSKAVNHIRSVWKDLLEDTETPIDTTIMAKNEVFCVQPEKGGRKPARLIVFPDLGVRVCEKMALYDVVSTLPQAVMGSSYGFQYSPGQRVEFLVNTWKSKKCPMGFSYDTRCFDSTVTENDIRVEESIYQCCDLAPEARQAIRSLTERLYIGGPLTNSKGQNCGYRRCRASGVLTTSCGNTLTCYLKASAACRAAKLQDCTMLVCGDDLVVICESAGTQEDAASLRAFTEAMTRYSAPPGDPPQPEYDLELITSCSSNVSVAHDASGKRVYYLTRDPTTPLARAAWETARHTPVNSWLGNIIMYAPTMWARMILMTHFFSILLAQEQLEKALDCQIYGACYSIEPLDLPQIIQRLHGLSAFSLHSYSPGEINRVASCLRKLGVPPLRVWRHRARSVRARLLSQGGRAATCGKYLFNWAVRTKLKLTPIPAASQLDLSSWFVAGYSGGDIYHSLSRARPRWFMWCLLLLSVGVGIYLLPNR
In data set [5] the target is RNA-directed RNA polymerase (Hepacivirus hominis, UniProt O39930, M414T). The experiment in a line: Inhibition of HCV NS5B polymerase M414T mutant.
Sequence of RNA-directed RNA polymerase (Hepacivirus hominis, UniProt O39930, M414T) (O39930 entry or part of it M414T): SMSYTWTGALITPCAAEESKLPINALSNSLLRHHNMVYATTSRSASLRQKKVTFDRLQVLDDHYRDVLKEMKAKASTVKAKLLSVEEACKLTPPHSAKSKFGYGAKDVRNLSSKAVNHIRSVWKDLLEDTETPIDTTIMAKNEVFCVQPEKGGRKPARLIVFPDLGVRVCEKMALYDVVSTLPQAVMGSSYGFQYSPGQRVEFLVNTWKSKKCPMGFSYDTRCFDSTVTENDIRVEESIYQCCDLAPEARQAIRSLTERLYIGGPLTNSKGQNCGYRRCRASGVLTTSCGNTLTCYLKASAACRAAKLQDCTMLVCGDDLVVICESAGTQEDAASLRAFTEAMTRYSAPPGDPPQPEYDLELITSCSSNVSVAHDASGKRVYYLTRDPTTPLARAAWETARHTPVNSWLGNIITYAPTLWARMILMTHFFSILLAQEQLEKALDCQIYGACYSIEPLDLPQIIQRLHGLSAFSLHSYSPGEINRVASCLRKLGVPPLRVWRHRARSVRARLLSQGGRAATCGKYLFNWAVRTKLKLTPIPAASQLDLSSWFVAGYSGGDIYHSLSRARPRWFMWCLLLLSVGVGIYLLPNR

The structures appear in SMILES notation. Some results are limits rather than exact numbers.

With `C[C@H]1CC[C@H](c2ccccc2-c2cc(-c3ccccc3)sc2C(=O)O)CC1`, the 50% inhibitory concentration (IC50) – broadly, the concentration needed to halve the response being measured – in data set [1] turned out to be 42 nM. Further, the concentration giving a half-maximal response (EC50) (commonly the concentration giving half of the maximal effect) in the data set with Hepatitis C virus was 12000 nM. Further, in data set [2], the cytotoxic concentration (CC50) – broadly, the concentration giving 50% cytotoxicity – came to 20000 nM.

`Cc1ccc(-c2cc(=O)[nH]n2-c2cc(-c3ccccc3)sc2C(=O)O)cc1` registered a half-inhibitory concentration (IC50) in data set [1] of 620 nM.

In data set [1], `Cc1ccc(-n2nncc2-c2cc(-c3ccccc3)sc2C(=O)O)cc1` returned an IC50 of 110 nM. The Kd (in general, the equilibrium constant for the complex coming apart) in data set [3] is 4320 nM; in data set [4] it was 23100 nM; in data set [5], 3990 nM. The molecule also gave an EC50 in the data set with Hepatitis C virus of over 30000 nM. Moreover, in data set [2], the cytotoxic concentration (CC50) is over 30000 nM.

For the molecule `C[C@H]1CC[C@H](n2nncc2-c2cc(-c3ccccc3)sc2C(=O)O)CC1`, the 50% inhibitory concentration (IC50) in data set [1] turned out to be 100 nM. Further, the dissociation constant Kd in data set [3] was found to be 860 nM; in data set [4], 4480 nM; in data set [5] it was 597 nM. Besides, in the data set on Hepatitis C virus, it took 15000 nM to reach a half-maximal effect (EC50). For the same molecule, in data set [2], the CC50 is over 50000 nM.

For `CCCCOc1ccccc1-c1cc(-c2ccccc2)sc1C(=O)O`, the IC50 in data set [1] is 16000 nM.

Consider `C[C@H]1CC[C@H](c2ncccc2-c2cc(-c3ccccc3)sc2C(=O)O)CC1`, for which the half-maximal inhibitory concentration (IC50) in data set [1] was 22 nM.

Molecule `CC1CCC(=Cc2ncccc2-c2cc(-c3ccccc3)sc2C(=O)O)CC1` (stereo unspecified) yielded an IC50 in data set [1] of 170 nM.

In data set [1], `O=C(O)c1sc(-c2ccccc2)cc1-c1cc(=O)[nH]nc1-c1ccccc1` came in with a half-inhibitory concentration (IC50) of 92000 nM.

For `Cc1ccc(-c2cc(=O)[nH]nc2-c2cc(-c3ccccc3)sc2C(=O)O)cc1`, the half-maximal inhibitory concentration (IC50) in data set [1] was found to be 3300 nM. Compared with the last molecule, the IC50 is about 28-fold lower.

On to `O=C(O)c1sc(-c2ccccc2)cc1-c1cnnn1-c1ccccc1`, for which the midpoint of inhibition in data set [1], the IC50, lay at 17000 nM. Against the preceding molecule, the IC50 is about 5.2-fold higher.

`O=C(O)c1sc(-c2ccccc2)cc1-c1cnnn1C1CCCCC1` registered an IC50 in data set [1] of 340 nM.

Molecule `O=C(O)c1sc(-c2ccccc2)cc1-c1conc1-c1ccccc1` returned an IC50 in data set [1] of 29000 nM.

Regarding `Cc1ccc(-c2nocc2-c2cc(-c3ccccc3)sc2C(=O)O)cc1`, the IC50 in data set [1] came out at 2500 nM.

The molecule `O=C(O)c1sc(-c2ccccc2)cc1-c1conc1C1CCCCC1` came in with a concentration for half-maximal inhibition (IC50) in data set [1] of 74 nM.

For the molecule `C[C@H]1CC[C@H](c2nocc2-c2cc(-c3ccccc3)sc2C(=O)O)CC1`, the IC50 in data set [1] amounted to 110 nM.

On to `O=C(O)c1sc(-c2ccccc2)cc1-c1conc1-c1ccc(Cl)cc1`, for which the concentration for half-maximal inhibition (IC50) in data set [1] was found to be 2600 nM. This IC50 lies about 24-fold higher than the previous one.

In data set [1], `O=C(O)c1sc(-c2ccccc2)cc1-c1conc1-c1ccc(F)cc1` returned an IC50 of 5700 nM.

In turn, `C[C@H]1CC[C@H](c2cc(-c3cc(-c4ccccc4)sc3C(=O)O)on2)CC1` yielded an IC50 in data set [1] of 32000 nM.

Molecule `CC(C)N(c1cc(-c2ccccc2)sc1C(=O)O)C(=O)[C@H]1CC[C@H](C)CC1` displayed a half-inhibitory concentration (IC50) in data set [1] of 28 nM. The Kd in data set [3] turned out to be 41 nM; in data set [4] it was 427 nM; in data set [5], 33 nM. This molecule came in with a concentration giving a half-maximal response (EC50) in the data set on Hepatitis C virus of 230 nM. In addition, half-maximal cytotoxicity in data set [2] (CC50) was put at 48000 nM.
